A short description of the data set: Solubility of Compound 1 (statement). It counts as physicochemical. The text has this: While Compound 1 is an example of a small molecule with a number of polar functional groups. […] These organic polar solvents, however, are not typically pharmaceutically acceptable for use in drug formulation.

With `Cc1ncsc1-c1ccc([C@H](C)NC(=O)[C@@H]2C[C@@H](O)CC2C(=O)[C@@H](NC(=O)CCCCCC(=O)N2CCN(CC[C@H](CSc3ccccc3)Nc3ccc(S(=O)(=O)NC(=O)c4ccc(N5CCN(CC6=C(c7ccc(Cl)cc7)CCC(C)(C)C6)CC5)cc4)cc3S(=O)(=O)C(F)(F)F)CC2)C(C)(C)C)cc1` (some centres unmarked) [Compound 1], the “Solubility in organic polar solvents” value is given as “sufficiently soluble” and the “Solubility in water or water based solvent mixtures” value is reported as “not sufficiently soluble”.

The record behind these values is US20240009122A1, “Small Molecule Formulation” (Dialectic Therapeutics, Inc., priority 2020, published 2024).
